According to patent US8133907B2, “Pyridine derivatives as dipeptedyl peptidase inhibitors” (Eli Lilly and Company, priority 2005, dated 2012):
Counter-ions that a name gives are not always drawn.

Target: T1, human recombinant DPIV enzyme (Homo sapiens, UniProt P27487)
T1 construct: Secreted DPIV (lacking membrane anchor) is enriched from HEK293 cell culture supernatant; made in house; host or cells: HEK293
Assay: Human Recombinant DPIV Activity Assay (fluorometric end point, Gly-Pro-AMC substrate)
Format: biochemical
Details: enriched human recombinant DPIV enzyme (21.3 μU/μl), Gly-Pro-AMC 0.02 mM, 12 points concentration response curve, duplicate
Protocol: Human Recombinant DPIV Activity Assay
The DPIV assay uses a fluorometric end point assay (excitation 355 nm; emission 460 nm), enriched human recombinant DPIV enzyme (21.3 μU/μl), and Gly-Pro-AMC (Bachem I-1225) as substrate (0.02 mM). Secreted DPIV (lacking membrane anchor) is enriched from HEK293 cell culture supernatant by ultrafiltration, ultra-centrifugation, and size-exclusion chromatography. IC50 values of the compounds are calculated based on a 12 points concentration response curve. Each concentration is measured in duplicate. The assay is validated by plate variability and conformity, inter-plate variability, signal window, and minimum significant ration of IC50. A MSR is calculated based on a test/retest analysis and a retrospective analysis. The MSR value is 1.8.

T1 sequence (P27487 29-766 limits assumed): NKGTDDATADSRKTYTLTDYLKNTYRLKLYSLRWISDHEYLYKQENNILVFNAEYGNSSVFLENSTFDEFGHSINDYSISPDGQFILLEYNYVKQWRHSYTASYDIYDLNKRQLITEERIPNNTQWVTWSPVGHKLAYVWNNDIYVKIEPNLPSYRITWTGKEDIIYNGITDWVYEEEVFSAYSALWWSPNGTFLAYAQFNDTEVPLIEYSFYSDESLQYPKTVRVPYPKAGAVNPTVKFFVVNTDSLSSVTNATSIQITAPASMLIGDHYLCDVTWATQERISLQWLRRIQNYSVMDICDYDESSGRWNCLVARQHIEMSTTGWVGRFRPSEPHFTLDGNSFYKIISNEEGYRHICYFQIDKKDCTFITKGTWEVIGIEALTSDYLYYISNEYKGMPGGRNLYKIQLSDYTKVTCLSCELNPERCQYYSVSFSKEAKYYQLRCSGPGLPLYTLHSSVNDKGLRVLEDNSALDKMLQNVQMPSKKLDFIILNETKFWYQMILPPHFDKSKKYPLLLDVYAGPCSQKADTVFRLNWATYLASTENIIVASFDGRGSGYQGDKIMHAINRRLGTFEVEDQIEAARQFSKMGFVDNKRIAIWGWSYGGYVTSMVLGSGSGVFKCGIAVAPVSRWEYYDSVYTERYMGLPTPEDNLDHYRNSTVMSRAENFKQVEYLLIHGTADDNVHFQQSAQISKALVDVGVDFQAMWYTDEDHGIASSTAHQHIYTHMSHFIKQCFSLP

Row | IC50 [nM] | SMILES
1 | 342 | CC(C)(C)NC(=O)c1cccnc1C[C@H](O)[C@H](N)Cc1cc(F)ccc1C(F)(F)F (racemic) [Example 10, 2-[(2SR,3RS)-3-Amino-4-(5-fluoro-2-trifluoromethylphenyl)-2-hydroxybutyl]-N-tert-butylnicotinamide Dihydrochloride]
2 | 30 | Cc1ccc(C)c(C[C@@H](N)[C@@H](O)Cc2ncccc2C(=O)NC(C)(C)C)c1 [Example 8, 2-[(2S,3R)-3-Amino-4-(2,5-dimethyl-phenyl)-2-hydroxy-butyl]-N-tert-butyl-nicotinamide Dihydrochloride]
3 | 22 | CC(C)(NC(=O)c1cccnc1C[C@H](O)[C@H](N)Cc1ccccc1F)c1ccccc1 [Example 23, 2-[(2S,3R)-3-Amino-4-(2-fluoro-phenyl)-2-hydroxy-butyl]-N-(1-methyl-1-phenyl-ethyl)-nicotinamide Dihydrochloride]
4 | 232 | N[C@H](Cc1ccccc1F)[C@@H](O)Cc1ccccn1 [Example 27, (2S,3R)-3-Amino-4-(2,-fluoro-phenyl)-1-pyridin-2-yl-butan-2-ol Dihydrochloride]
